Laboratory results as given in patent US10472347B2, “Aminopyrazine compounds with A2A antagonist properties” (Merck Sharp & Dohme Corp., priority 2014, dated 2019).

target: T1, human A2a receptor (Homo sapiens, UniProt P29274); test: A2a competition binding assay, Scintillation Proximity technology; conditions: membranes from HEK293 cells expressing human A2a receptor; Ki by Cheng-Prusoff equation
T1 construct: purchased Perkin-Elmer RBHA2AM400UA; host or cells: HEK293 cells (membranes)
Summary of the method: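 Membranes from HEK293 cells expressing human A2a, adenosine deaminase-treated, incubated 1 h at room temperature with compound (3000 to 0.15 nM) and 0.5 nM tritiated pyrazolotriazolopyrimidine radioligand on WGA SPA beads in Ca/Mg-free PBS + 10 mM MgCl2. Non-specific binding with 1 μM CGS15943; Ki by Cheng-Prusoff.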

T1 sequence (P29274 whole entry): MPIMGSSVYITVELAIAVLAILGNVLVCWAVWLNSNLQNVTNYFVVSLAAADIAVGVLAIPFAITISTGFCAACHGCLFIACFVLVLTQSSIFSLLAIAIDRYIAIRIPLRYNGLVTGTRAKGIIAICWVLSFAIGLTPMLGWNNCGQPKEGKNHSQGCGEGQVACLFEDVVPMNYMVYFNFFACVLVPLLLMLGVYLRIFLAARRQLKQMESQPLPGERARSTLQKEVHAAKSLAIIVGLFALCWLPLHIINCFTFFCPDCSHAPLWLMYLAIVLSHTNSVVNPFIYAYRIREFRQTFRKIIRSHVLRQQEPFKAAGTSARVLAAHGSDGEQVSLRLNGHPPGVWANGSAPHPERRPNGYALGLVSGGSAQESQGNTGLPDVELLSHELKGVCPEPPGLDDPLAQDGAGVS

Row | Ki | Structure (SMILES)
1 | 1.4 nM | Cc1nc(C(=O)NCc2cccc3c2ccn3CC(F)F)c(N)nc1-c1ncco1 [Ex-217, 3-amino-N-{[1-(2,2-difluoroethyl)-1H-indol-4-yl]methyl}-6-methyl-5-(1,3-oxazol-2-yl)pyrazine-2-carboxamide]
2 | 0.309 nM | Cc1nc(C(=O)NCc2cccc3c2ncn3C)c(N)nc1-c1ncco1 [Ex-218, 3-amino-6-methyl-N-[(1-methyl-1H-benzimidazol-4-yl)methyl]-5-(1,3-oxazol-2-yl)pyrazine-2-carboxamide]
3 | 36.5 nM | Cc1nc(C(=O)NCc2cccc3ncn(C)c23)c(N)nc1-c1ncco1 [Ex-219, 3-amino-6-methyl-N-[(1-methyl-1H-benzimidazol-7-yl)methyl]-5-(1,3-oxazol-2-yl)pyrazine-2-carboxamide]
4 | 9.22 nM | Cc1nc(C(=O)N[C@H]2CCc3cc(Cl)ccc32)c(N)nc1-c1ncco1 [Ex-222]
5 | 2.98 nM | Cc1nc(C(=O)NC2CC(O)c3cccnc32)c(N)nc1-c1ncco1 (stereo not shown) [Ex-223, 3-amino-N-(5-hydroxy-6,7-dihydro-5H-cyclopenta[b]pyridin-7-yl)-6-methyl-5-(1,3-oxazol-2-yl)pyrazine-2-carboxamide]
6 | 0.201 nM | Cc1nc(C(=O)NCc2ncccc2CF)c(N)nc1-c1ncco1 [Ex-224, 3-amino-N-{[3-(fluoromethyl)pyridin-2-yl]methyl}-6-methyl-5-(1,3-oxazol-2-yl)pyrazine-2-carboxamide]
7 | 0.178 nM | Cc1nc(C(=O)NCc2ncccc2CO)c(N)nc1-c1ncco1 [Ex-225, 3-amino-N-{[3-(hydroxymethyl)pyridin-2-yl]methyl}-6-methyl-5-(1,3-oxazol-2-yl)pyrazine-2-carboxamide]
8 | 1.74 nM | Cc1nc(C(=O)NCc2cccc3c2cnn3CC(F)F)c(N)nc1-c1ncco1 [Ex-228, 3-amino-N-{[1-(2,2-difluoroethyl)-1H-indazol-4-yl]methyl}-6-methyl-5-(1,3-oxazol-2-yl)pyrazine-2-carboxamide]
9 | 0.358 nM | Cc1nc(C(=O)NCc2cccc3c2ncn3CC2CC2)c(N)nc1-c1ncco1 [Ex-229, 3-amino-N-{[1-(cyclopropylmethyl)-1H-benzimidazol-4-yl]methyl}-6-methyl-5-(1,3-oxazol-2-yl)pyrazine-2-carboxamide]
10 | 0.243 nM | Cc1nc(C(=O)NC2Cc3ccccc3C2)c(N)nc1-c1ncco1 [Ex-235, 3-amino-N-(2,3-dihydro-1H-inden-2-yl)-6-methyl-5-(1,3-oxazol-2-yl)pyrazine-2-carboxamide]
11 | 1.61 nM | Cc1ccc(C(C)(C)O)nc1CNC(=O)c1nc(C)c(-c2ncco2)nc1N [Ex-236, 3-amino-N-{[6-(1-hydroxy-1-methylethyl)-3-methylpyridin-2-yl]methyl}-6-methyl-5-(1,3-oxazol-2-yl)pyrazine-2-carboxamide]
12 | 1.77 nM | COc1ccc(C(C)(C)O)nc1CNC(=O)c1nc(C)c(-c2ncco2)nc1N [Ex-237, 3-amino-N-{[6-(1-hydroxy-1-methylethyl)-3-methoxypyridin-2-yl]methyl}-6-methyl-5-(1,3-oxazol-2-yl)pyrazine-2-carboxamide]
13 | 40.5 nM | Cc1nc(C(=O)NC2CC(O)c3cccnc32)c(N)nc1-c1ncco1 (stereo not shown) [Ex-240A, 3-amino-N-(5-hydroxy-6,7-dihydro-5H-cyclopenta[b]pyridin-7-yl)-6-methyl-5-(1,3-oxazol-2-yl)pyrazine-2-carboxamide]
14 | 1.73 nM | Cc1nc(C(=O)NC2CC(O)c3cccnc32)c(N)nc1-c1ncco1 (stereo not shown) [Ex-240B, 3-amino-N-(5-hydroxy-6,7-dihydro-5H-cyclopenta[b]pyridin-7-yl)-6-methyl-5-(1,3-oxazol-2-yl)pyrazine-2-carboxamide]
15 | 1.09 nM | CCn1ncc2c(CNC(=O)c3nc(C)c(-c4ncco4)nc3N)cccc21 [Ex-242, 3-amino-N-[(1-ethyl-1H-indazol-4-yl)methyl]-6-methyl-5-(1,3-oxazol-2-yl)pyrazine-2-carboxamide]
16 | 15.1 nM | CCn1cc2c(CNC(=O)c3nc(C)c(-c4ncco4)nc3N)cccc2n1 [Ex-243, 3-amino-N-[(2-ethyl-2H-indazol-4-yl)methyl]-6-methyl-5-(1,3-oxazol-2-yl)pyrazine-2-carboxamide]
17 | 3.45 nM | Cc1nc(C(=O)NCc2ncccc2C(F)(F)F)c(N)nc1-c1cnco1 [Ex-249, 3-amino-6-methyl-5-(1,3-oxaol-5-yl)-N-{[3-(trifluoromethyl)-pyridin-2-yl]-methyl}pyrazine-2-carboxamide]
18 | 2.4 nM | Nc1nc(-c2cnco2)c(Cl)nc1C(=O)NCc1cccc2cccnc12 [Ex-250, 3-amino-6-chloro-5-(1,3-oxazol-5-yl)-N-(quinolin-8-ylmethyl)pyrazine-2-carboxamide]
19 | 1.1 nM | Cc1nc(C(=O)NCc2c(F)cccc2F)c(N)nc1-c1cnco1 [Ex-251, 3-amino-N-(2,6-difluorobenzyl)-6-methyl-5-(1,3-oxazol-5-yl)pyrazine-2-carboxamide]
20 | 1.81 nM | Cc1cccnc1CNC(=O)c1nc(C)c(-c2cnco2)nc1N [Ex-252, 3-amino-6-methyl-N-[(3-methylpyridin-2-yl)methyl]-5-(1,3-oxazol-5-yl)pyrazine-2-carboxamide]

Row | Ki | Structure (SMILES)
21 | 8.57 nM | Cc1nc(C(=O)NCc2ccc(F)cc2F)c(N)nc1-c1cnco1 [Ex-253, 3-amino-N-(2,4-difluorobenzyl)-6-methyl-5-(1,3-oxazol-5-yl)pyrazine-2-carboxamide]
22 | 1.47 nM | COc1ccccc1CNC(=O)c1nc(C)c(-c2cnco2)nc1N [Ex-254, 3-amino-N-(2-methoxybenzyl)-6-methyl-5-(1,3-oxazol-5-yl)pyrazine-2-carboxamide]
23 | 0.2 nM | Cc1nc(C(=O)NCc2c(Cl)cccc2Cl)c(N)nc1-c1cnco1 [Ex-255, 3-amino-N-(2,6-dichlorobenzyl)-6-methyl-5-(1,3-oxazol-5-yl)pyrazine-2-carboxamide]
24 | 0.196 nM | Cc1cccc(Cl)c1CNC(=O)c1nc(C)c(-c2cnco2)nc1N [Ex-256, 3-amino-N-(2-chloro-6-methylbenzyl)-6-methyl-5-(1,3-oxazol-5-yl)pyrazine-2-carboxamide]
25 | 1.94 nM | Cc1nc(C(=O)NCc2ncccc2C(F)(F)F)c(N)nc1-c1cnco1 [Ex-257, 3-amino-6-methyl-5-(1,3-oxazol-5-yl)-N-{[3-(trifluoromethyl)pyridin-2-yl]methyl}pyrazine-2-carboxamide]
26 | 2.9 nM | Cc1cc(Cl)cc(Cl)c1CNC(=O)c1nc(C)c(-c2cnco2)nc1N [Ex-258, 3-amino-N-(2,4-dichloro-6-methylbenzyl)-6-methyl-5-(1,3-oxazol-5-yl)pyrazine-2-carboxamide]
27 | 403 nM | Cc1nc(C(=O)NC(C)(C)c2ccccn2)c(N)nc1-c1cnco1 [Ex-259, 3-amino-6-methyl-N-(1-methyl-1-pyridin-2-ylethyl)-5-(1,3-oxazol-5-yl)pyrazine-2-carboxamide]
28 | 786 nM | Cc1nc(C(=O)NC(C)(C)c2ccc(F)c(F)c2)c(N)nc1-c1cnco1 [Ex-260, 3-amino-N-[1-(3,4-difluorophenyl)-1-methylethyl]-6-methyl-5-(1,3-oxazol-5-yl)pyrazine-2-carboxamide]
29 | 1420 nM | Cc1nc(C(=O)NC(C)(C)c2ccncc2)c(N)nc1-c1cnco1 [Ex-261, 3-amino-6-methyl-N-(1-methyl-1-pyridin-4-ylethyl)-5-(1,3-oxazol-5-yl)pyrazine-2-carboxamide]
30 | 340 nM | Cc1nc(C(=O)NCC(C)(F)F)c(N)nc1-c1cnco1 [Ex-262, 3-amino-N-(2,2-difluoropropyl)-6-methyl-5-(1,3-oxazol-5-yl)pyrazine-2-carboxamide]
31 | 3.75 nM | Cc1cccc(CNC(=O)c2nc(C)c(-c3cnco3)nc2N)n1 [Ex-263, 3-amino-6-methyl-N-[(6-methylpyridin-2-yl)methyl]-5-(1,3-oxazol-5-yl)pyrazine-2-carboxamide]
32 | 359 nM | Nc1nc(-n2ccnn2)c(Cl)nc1C(=O)NCc1ccccc1C(F)(F)F [Ex-268, 3-amino-6-chloro-5-(1H-1,2,3-triazol-1-yl)-N-[2-(trifluoromethyl)benzyl] pyrazine-2-carboxamide]
33 | 4.3 nM | Nc1nc(-n2nccn2)c(Cl)nc1C(=O)NCc1ccccc1C(F)(F)F [Ex-269, 3-amino-6-chloro-5-(2H-1,2,3-triazol-2-yl)-N-[2-(trifluoromethyl)benzyl] pyrazine-2-carboxamide]
34 | 6470 nM | Nc1nc(-n2ccnn2)c(Cl)nc1C(=O)NCc1ccc(F)cc1F [Ex-270, 3-amino-6-chloro-N-(2,4-difluorobenzyl)-5-(1H-1,2,3-triazol-1-yl)pyrazine-2-carboxamide]
35 | 6.19 nM | Nc1nc(-n2nccn2)c(Cl)nc1C(=O)NCc1ccc(F)cc1F [Ex-271, 3-amino-6-chloro-N-(2,4-difluorobenzyl)-5-(2H-1,2,3-triazol-2-yl)pyrazine-2-carboxamide]
36 | 269 nM | Nc1nc(-n2ccnn2)c(Cl)nc1C(=O)NCc1cccc2cccnc12 [Ex-272, 3-amino-6-chloro-N-(quinolin-8-ylmethyl)-5-(1H-1,2,3-triazol-1-yl)pyrazine-2-carboxamide]
37 | 2.23 nM | Nc1nc(-n2nccn2)c(Cl)nc1C(=O)NCc1cccc2cccnc12 [Ex-273, 3-amino-6-chloro-N-(quinolin-8-ylmethyl)-5-(2H-1,2,3-triazol-2-yl)pyrazine-2-carboxamide]
38 | 2 nM | Cc1nc(C(=O)NCc2c(F)cccc2F)c(N)nc1-n1nccn1 [Ex-274, 3-amino-N-(2,6-difluorobenzyl)-6-methyl-5-(2H-1,2,3-triazol-2-yl)pyrazine-2-carboxamide]
39 | 2.1 nM | Cc1nc(C(=O)NCc2cccc3cccnc23)c(N)nc1-n1nccn1 [Ex-275, 3-amino-6-methyl-N-(quinolin-8-ylmethyl)-5-(2H-1,2,3-triazol-2-yl)pyrazine-2-carboxamide]
40 | 408 nM | CCOC(=O)c1nc(C)c(-n2nccn2)nc1N [Ex-276, ethyl 3-amino-6-methyl-5-(2H-1,2,3-triazol-2-yl)pyrazine-2-carboxylate]
